According to US20230295162A1 (EÖTVÖS LORÁND TUDOMÁNYEGYETEM, priority 2020, published 2023):
Read-outs that look alike come from different tables or passages of the source.

Legend:
[1] = test system: EBC-1 lung cancer cell line; assay: High-throughput screening, CellTiter-Glo cell viability assay at 100 nM; format: cell-based, human; details: compounds at 100 nM, 72 h, read-out: cytotoxicity expressed in IC50, EBC-1 (results of High throughput screening)
Description: (§1) EBC-1 (obtained from JRCB, https://cellbank.nibiohn.go.jp/english/) and H2228 (obtained from ATCC https://www.lgcstandards-atcc.org/) cell lines were maintained according to the instructions provided by JRCB and ATCC in a 5% CO2 humidified incubator maintained at 37° C. temperature. Effect of compounds on cell viability was measured via CellTiter-Glo® luminescent cell viability assay (Promega, Madison, WI, USA). Cells were plated at 1000 cells/well onto a flat-bottomed, white 96 well plate (BRANDplates, cat. no.: 781965). After 24 h, cells were treated for 72 h with the compounds at 100 nM concentration. After the treatment, medium was removed and CellTiter-Glo® reagent was added. Untreated cells were used as control. The luminescence signal was recorded using a microplate reader (BioTek Synergy 2 Multi-Mode Reader, BioTek, Winooski, VT, USA). Cell viability data (% of untreated control cells) was evaluated with Microsoft Excel.

[2] = test system: H2228 lung cancer cell line; assay: as above; format: cell-based, human; details: compounds at 100 nM, 72 h, read-out: cytotoxicity expressed in IC50, H2228 (results of High throughput screening)
Description: as §1

[3] = test system: PANC-1 (human pancreatic carcinoma) cells; assay: Impedance-based viability assay (xCELLigence SP), long treatment; format: cell-based; details: 72 h, read-out: cytotoxicity expressed in IC50, PANC-1
From the text: (Gibco®/Invitrogen Corporation, New York, NY, USA).
Data obtained from each experiment represent mathematical averages.

[4] = test system: A2058 (human metastatic melanoma) cells; assay: Colorimetric alamarBlue assay, long treatment; details: read-out: cytotoxicity expressed in IC50, A-2058
[5] = test system: COLO-205 (human colorectal adenocarcinoma) cells; assay: Colorimetric alamarBlue assay, long treatment; details: COLO 205, 72 h, read-out: cytotoxicity expressed in IC50, COLO-205

| Compound | IC50 ([1]; Homo sapiens, EBC-1, HTS) [nM] | IC50 ([2]; Homo sapiens, NCI-H2228, HTS) [nM] | IC50 [3] [nM] | IC50 ([4]; Homo sapiens, A2058, 72 h) [nM] | IC50 [5] [nM] | IC50 ([1]; HTS) [nM] | IC50 ([2]; HTS) [nM] | IC50 ([4]; alamarBlue, 72 h) [nM] |
| --- | --- | --- | --- | --- | --- | --- | --- | --- |
| Nc1ccc(CN2CCC3=C(C2)C(=O)N(Cc2ccc(I)cc2)C2=NCCN23)cc1 [I/87] | > 100 | > 100 | 16000 | – | – | – | – | – |
| Cc1ccccc1CN1C(=O)C2=C(CCN(CCc3cccc(F)c3)C2)N2CCN=C12 [I/45] | – | – | > 10000 | > 10000 | > 10000 | – | – | – |
| Nc1ccc(CN2CCC3=C(C2)C(=O)N(Cc2ccc(C(F)(F)F)cc2)C2=NCCN23)cc1 [I/81] | > 100 | > 100 | 21000 | – | – | – | – | – |
| Cc1ccccc1CN1C(=O)C2=C(CCN(Cc3ccc(F)c(F)c3F)C2)N2CCN=C12 [I/10] | – | – | > 10000 | > 10000 | > 10000 | – | – | – |
| Nc1ccc(CN2CCC3=C(C2)C(=O)N(Cc2ccc(F)cc2)C2=NCCN23)cc1 [I/86] | > 100 | > 100 | 25000 | – | – | – | – | – |
| O=C1C2=C(CCN(Cc3ccccc3F)C2)N2CCN=C2N1Cc1ccc(I)cc1 [I/54] | – | – | 1800 | – | 2000 | – | – | – |
| NCc1cccc(CN2CCC3=C(C2)C(=O)N(Cc2ccc(I)cc2)C2=NCCN23)c1 [I/59] | > 100 | > 100 | 660 | – | – | – | – | – |
| Cc1ccccc1CN1C(=O)C2=C(CCN(Cc3cccc(N=[N+]=[N-])c3)C2)N2CCN=C12 [I/103] | > 100 | > 100 | 270 | 25000 | – | – | – | – |
| Cc1ccccc1CN1C(=O)C2=C(CCN(Cc3ccc(C(F)(F)F)c(F)c3)C2)N2CCN=C12 [I/43] | > 100 | > 100 | > 10000 | > 10000 | > 10000 | – | – | – |
| O=C1C2=C(CCN(Cc3ccc(F)cc3)C2)N2CCN=C2N1Cc1ccc(I)cc1 [I/55] | > 100 | > 100 | 760 | – | 1000 | – | – | – |
| Nc1ccc(CN2C(=O)C3=C(CCN(Cc4cccc(F)c4)C3)N3CCN=C23)cc1 [I/84] | > 100 | > 100 | 23000 | – | – | – | – | – |
| Cc1ccccc1CN1C(=O)C2=C(CCN(Cc3cccc(F)c3)C2)N2CCN=C12 [I/53] | > 100 | > 100 | 2000 | – | 2000 | – | – | – |
| O=C1C2=C(CCN(Cc3ccccc3)C2)N2CCN=C2N1Cc1ccccc1I [I/11] | > 100 | > 100 | > 10000 | > 10000 | > 10000 | – | – | – |
| NCc1cccc(CN2C(=O)C3=C(CCN(Cc4ccc(C(F)(F)F)c(F)c4)C3)N3CCN=C23)c1 [I/73] | – | – | > 10000 | > 10000 | > 10000 | – | – | – |
| O=C1C2=C(CCN(Cc3ccccc3)C2)N2CCN=C2N1Cc1ccc(F)c(F)c1F [I/29] | – | – | 660 | > 10000 | > 10000 | – | – | – |
| NCc1cccc(CN2C(=O)C3=C(CCN(Cc4ccc(C(F)(F)F)cc4)C3)N3CCN=C23)c1 [I/68] | > 100 | > 100 | > 10000 | > 10000 | > 10000 | – | – | – |
| [N-]=[N+]=Nc1cccc(CN2CCC3=C(C2)C(=O)N(Cc2ccc(I)cc2)C2=NCCN23)c1 [I/113] | < 100 | < 100 | 250 | 250 | – | – | – | – |
| O=C1C2=C(CCN(Cc3ccccc3)C2)N2CCN=C2N1Cc1ccccc1F [I/2, reference compound] | > 100 | > 100 | 4180 | 2950 | 9970 | – | – | – |
| 7-Benzyl-4-(4-(4-ferrocenyl-1H-1,2,3-triazol-1-yl)benzyl)-2,4,6,7,8,9-hexahydroimidazo[1,2-a]pyrido[3,4-e]pyrimidin-5(1H)-one [I/121] | – | – | – | – | – | > 100 | > 100 | 2500 |
| Nc1cccc(CN2C(=O)C3=C(CCN(Cc4ccccc4)C3)N3CCN=C23)c1 [I/75] | > 100 | > 100 | 6100 | 25000 | – | – | – | – |
| [N-]=[N+]=Nc1cccc(CN2CCC3=C(C2)C(=O)N(Cc2ccc(C(F)(F)F)c(F)c2)C2=NCCN23)c1 [I/112] | < 100 | < 100 | 100 | 25000 | – | – | – | – |
| O=C1C2=C(CCN(Cc3ccccc3)C2)N2CCN=C2N1Cc1ccc([N+](=O)[O-])cc1F [I/48] | > 100 | > 100 | 6160 | 500 | 25000 | – | – | – |
| [N-]=[N+]=Nc1ccc(CN2C(=O)C3=C(CCN(Cc4ccccc4)C3)N3CCN=C23)cc1 [I/104] | – | – | 500 | 2500 | 250 | – | – | – |
| O=C1C2=C(CCN(Cc3ccccc3)C2)N2CCN=C2N1CCc1cccc(F)c1 [I/44] | – | – | > 10000 | > 10000 | > 10000 | – | – | – |
| COc1cc(CN2C(=O)C3=C(CCN(Cc4ccc(N)cc4)C3)N3CCN=C23)cc(OC)c1OC [I/89] | > 100 | > 100 | 25000 | – | – | – | – | – |
